From ChEMBL document CHEMBL3792360, “Antibacterial activity of Mannich bases derived from 2-naphthols, aromatic aldehydes and secondary aliphatic amines” (2016)
≈ marks a conversion by molar mass, not a printed value.

What was measured:
Assay type in all cases: functional
[1] = test system: Escherichia coli; assay: Antibacterial activity against Escherichia coli ATCC 35218 after 16 to 20 hrs by broth microdilution method
[2] = test system: Escherichia coli; assay: Antibacterial activity against Escherichia coli ATCC 25922 after 16 to 20 hrs by broth microdilution method
[3] = test system: Enterococcus faecalis; assay: Antibacterial activity against Enterococcus faecalis ATCC 25912 after 16 to 20 hrs by broth microdilution method
[4] = test system: Pseudomonas aeruginosa; assay: Antibacterial activity against Pseudomonas aeruginosa CIP 82118 after 16 to 20 hrs by broth microdilution method
[5] = test system: Staphylococcus aureus; assay: Antibacterial activity against Staphylococcus aureus […] after 16 to 20 hrs by broth microdilution method
[6] = test system: Enterobacter cloacae; assay: Antibacterial activity against Enterobacter cloacae CIP 103475 after 16 to 20 hrs by broth microdilution method
[7] = test system: Citrobacter freundii; assay: Antibacterial activity against Citrobacter freundii CIP 5732 after 16 to 20 hrs by broth microdilution method
[8] = test system: Klebsiella pneumoniae; assay: Antibacterial activity against Klebsiella pneumoniae CIP 53153 after 16 to 20 hrs by broth microdilution method
[9] = test system: Proteus vulgaris; assay: Antibacterial activity against Proteus vulgaris CIP 104989 after 16 to 20 hrs by broth microdilution method
[10] = test system: Staphylococcus aureus; assay: Antibacterial activity against methicillin-resistant Staphylococcus aureus ATCC 43300 after 16 to 20 hrs by broth microdilution method

Row | SMILES | MIC [1] [µg/mL] | MIC [2] [µg/mL] | MIC [3] [µg/mL] | MIC [4] [µg/mL] | MIC [5] [µg/mL] | MIC [6] [µg/mL] | MIC [7] [µg/mL] | MIC [8] [µg/mL] | MIC [9] [µg/mL] | MIC [10] [µg/mL]
1 | COc1ccc2ccc(O)c(C(c3ccccc3)N3CCCCC3)c2c1 (stereo not given) | > 512 | > 512 | > 512 | > 512 | > 512 | > 512 | > 512 | > 512 | > 512 | > 512
2 | Oc1ccc2ccccc2c1C(c1ccccc1)N1CCCCC1 (stereo not given) | > 512 | > 512 | > 512 | > 512 | 8 (≈ 25.2 µM) | > 512 | > 512 | > 512 | > 512 | > 512
